Source: patent EP0545103A1, “Insecticidal, acaricidal and molluscicidal 1-(substituted) thioalkylpyrroles” (priority 1991, dated 1993)

Key:
Type in all cases: in vivo
Parameters in all cases: key: 0: no effect; 10-25% kill; 26-35% kill; 36-45% kill; 46-55% kill; 56-65% kill; 66-75% kill; 76-85% kill; 86-99% kill; 9: 100% kill
[1] = test system: Tetranychus urticae (OP-resistant strain), 2-spotted spider mite; assay: 2-spotted spider mite test, dipped infested limabean plants
Procedure, shortened: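 Mite-infested Sieva limabean plants (OP-resistant strain, ~100 mites per leaf, transferred ~2 h earlier) dipped 3 s with agitation in compound solution (10,000 ppm stock in 35% acetone/water, diluted with water). Mortality counted at 2 days; egg and nymph mortality assessed at 5 days; rated on a scale.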

[2] = test system: Spodoptera eridania, 3rd instar larvae, southern armyworm; assay: Southern armyworm systemic uptake (stem systemic) test; conditions: cut stem in emulsion 3 days
[3] = test system: Spodoptera eridania, 3rd instar larvae, southern armyworm; assay: Southern armyworm 3rd instar test, dipped limabean leaf; conditions: for ARMYWORM Day 3: rating at 3 days; for ARMYWORM Day 5: rating at 5 days
Procedure, shortened: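 Compound dissolved in 35% acetone/water at 10,000 ppm stock, diluted with water. Sieva limabean leaves dipped 3 s, dried, and exposed to ten 3rd instar larvae on damp filter paper. Mortality, reduced feeding and molting interference scored at 3 and 5 days on a rating scale.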

[4] = test system: Aphis fabae, mixed instar, bean aphid; assay: Bean aphid spray test on nasturtium; conditions: 100 ppm
Procedure, shortened: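 Compound dissolved at 10,000 ppm in 35% acetone/water, then water-diluted. Nasturtium plants (~5 cm) infested with 100-200 aphids one day before spraying to full coverage on a turntable; mortality estimated after 2 days on a rating scale.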

[5] = 300 ppm, adult mites, rating scale 0-9
[6] = 300 ppm, mite eggs, rating scale 0-9
[7] = 300 ppm, mite nymphs, rating scale 0-9
[8] = 10 ppm, adult mites, rating scale 0-9
[9] = 10 ppm, mite eggs, rating scale 0-9
[10] = 100 ppm, adult mites, rating scale 0-9
[11] = 100 ppm, mite eggs, rating scale 0-9
[12] = 10 ppm, mite nymphs, rating scale 0-9
[13] = 10 ppm, mortality rating after 2 days
[14] = spray, mortality rating after 2 days

Row | SMILES | OP-RESISTANT MITES Adult [1, 5] | OP-RESISTANT MITES Egg [1, 6] | OP-RESISTANT MITES Nymph [1, 7] | ARMYWORM Stem Sys [2] | ARMYWORM Day 3 ([3]; 10 ppm) | ARMYWORM Day 5 ([3]; 10 ppm) | ARMYWORM Day 3 ([3]; 100 ppm) | ARMYWORM Day 5 ([3]; 100 ppm) | ARMYWORM Day 3 ([3]; 1000 ppm) | ARMYWORM Day 5 ([3]; 1000 ppm) | APHIDS ([4]; rating scale 0-9) | OP-RESISTANT MITES Egg ([1]; 10 ppm, rating after 5 days) | OP-RESISTANT MITES Egg ([1]; 100 ppm, rating after 5 days) | OP-RESISTANT MITES Egg ([1]; 300 ppm, rating after 5 days) | APHIDS [4, 14] | other results
1 | CN=C(NC)SCn1c(Br)c(Br)c(C#N)c1Br [Example 14] | 0 | 0 | 0 | 0 | 0 | 0 | 9 (100% kill) | 9 (100% kill) | 9 (100% kill) | 9 (100% kill) | 0 | – | – | – | – | –
2 | N#Cc1c(Br)c(Br)n(CSC2=NCCCN2)c1Br [Example 13] | 5 (56-65% kill) | 0 | 0 | 7 (76-85% kill) | – | – | 0 | – | 9 (100% kill) | – | 0 | – | – | – | – | –
3 | CC(C)OC(=S)SCn1c(-c2ccc(Cl)cc2)c(C#N)c(Br)c1C(F)(F)F [Example 30] | 9 (100% kill) | 0 | 0 | 0 | 9 (100% kill) | 9 (100% kill) | 9 (100% kill) | 9 (100% kill) | 9 (100% kill) | 9 (100% kill) | 3 (36-45% kill) | – | – | – | – | OP-RESISTANT MITES Adult [1, 8]: 9 (100% kill); OP-RESISTANT MITES Egg [1, 9]: 9 (100% kill); OP-RESISTANT MITES Adult [1, 10]: 9 (100% kill); OP-RESISTANT MITES Egg [1, 11]: 9 (100% kill)
4 | CCOC(=S)SCn1c(-c2ccc(Cl)c(Cl)c2)c(Br)c(C(F)(F)F)c1C(F)(F)F [Example 35] | – | 0 | 0 | 0 | 9 (100% kill) | 9 (100% kill) | 9 (100% kill) | 9 (100% kill) | 9 (100% kill) | 9 (100% kill) | 0 | – | – | – | – | OP-RESISTANT MITES Nymph [1, 12]: 0
5 | N#Cc1c(Br)c(C(F)(F)F)n(CSC2=NCCN2)c1-c1ccc(Cl)cc1 [Example 7] | – | – | – | 0 | 9 (100% kill) | 9 (100% kill) | 9 (100% kill) | 9 (100% kill) | 9 (100% kill) | 9 (100% kill) | – | 0 | 9 (100% kill) | 0 | 0 | OP-RESISTANT MITES Adult [1, 13]: 9 (100% kill); OP-RESISTANT MITES Nymph ([1]; 10 ppm, rating after 5 days): 0; OP-RESISTANT MITES Adult ([1]; 100 ppm, mortality rating after 2 days): 9 (100% kill); OP-RESISTANT MITES Adult ([1]; 300 ppm, mortality rating after 2 days): 9 (100% kill); OP-RESISTANT MITES Nymph ([1]; 300 ppm, rating after 5 days): 0
6 | CSCn1c(Br)c(Br)c(C#N)c1-c1ccc(C(F)(F)F)cc1 [Example 44] | – | – | – | 0 | 0 | 0 | 9 (100% kill) | 9 (100% kill) | 9 (100% kill) | 9 (100% kill) | – | 0 | 7 (76-85% kill) | 0 | 0 | OP-RESISTANT MITES Adult [1, 13]: 0; OP-RESISTANT MITES Nymph ([1]; 100 ppm, rating after 5 days): 0
7 | CN=C(NC)SCn1c(-c2ccc(Cl)cc2)c(C#N)c(Cl)c1C(F)(F)F [Example 2] | – | – | – | 0 | 9 (100% kill) | 9 (100% kill) | 9 (100% kill) | 9 (100% kill) | 9 (100% kill) | 9 (100% kill) | – | 0 | 9 (100% kill) | 0 | 0 | –
8 | CN(C)C(=S)SCn1c(Cl)c(C#N)c(Cl)c1-c1ccc(Cl)c(Cl)c1 [Example 36] | 7 (76-85% kill) | 0 | 0 | 0 | – | – | – | – | – | – | 0 | – | – | – | – | OP-RESISTANT MITES Adult [1, 8]: 0; OP-RESISTANT MITES Egg [1, 9]: 0; OP-RESISTANT MITES Nymph [1, 12]: 0; OP-RESISTANT MITES Adult [1, 10]: 0; OP-RESISTANT MITES Egg [1, 11]: 0; OP-RESISTANT MITES Nymph ([1]; 100 ppm, mite nymphs, rating scale 0-9): 0
